The record followed here is patent US10118926B2, “Tricyclic quinoline and quinoxaline derivatives” (AbbVie Deutschland GmbH & Co. KG, priority 2012, dated 2018).

SMILES strings stand for the structures.

In general, EC50 refers to the concentration needed to bring the measured effect to its halfway point. One may read the Emax as the greatest response seen or fitted, relative to the assay's reference.

In this assay the target is T1, 5-HT2C receptor (Homo sapiens, UniProt P28335).
T1 construct: β-galactosidase enzyme-complementation fragment (ProLink-type donor); host or cells: U2OS
T1 sequence (P28335 33-458): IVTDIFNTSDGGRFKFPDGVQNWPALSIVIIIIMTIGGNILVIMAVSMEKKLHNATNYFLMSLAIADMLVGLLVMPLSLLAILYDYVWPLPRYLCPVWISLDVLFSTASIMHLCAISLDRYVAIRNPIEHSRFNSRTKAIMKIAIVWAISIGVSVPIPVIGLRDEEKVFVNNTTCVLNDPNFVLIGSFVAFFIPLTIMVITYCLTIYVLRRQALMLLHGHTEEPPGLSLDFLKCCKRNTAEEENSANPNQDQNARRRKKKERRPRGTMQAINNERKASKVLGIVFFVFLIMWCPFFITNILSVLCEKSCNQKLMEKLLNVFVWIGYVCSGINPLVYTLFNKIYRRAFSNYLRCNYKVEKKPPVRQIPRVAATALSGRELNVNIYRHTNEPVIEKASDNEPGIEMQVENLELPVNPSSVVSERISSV
T1 sequence (P32121 whole entry partner, the tested form may be a part): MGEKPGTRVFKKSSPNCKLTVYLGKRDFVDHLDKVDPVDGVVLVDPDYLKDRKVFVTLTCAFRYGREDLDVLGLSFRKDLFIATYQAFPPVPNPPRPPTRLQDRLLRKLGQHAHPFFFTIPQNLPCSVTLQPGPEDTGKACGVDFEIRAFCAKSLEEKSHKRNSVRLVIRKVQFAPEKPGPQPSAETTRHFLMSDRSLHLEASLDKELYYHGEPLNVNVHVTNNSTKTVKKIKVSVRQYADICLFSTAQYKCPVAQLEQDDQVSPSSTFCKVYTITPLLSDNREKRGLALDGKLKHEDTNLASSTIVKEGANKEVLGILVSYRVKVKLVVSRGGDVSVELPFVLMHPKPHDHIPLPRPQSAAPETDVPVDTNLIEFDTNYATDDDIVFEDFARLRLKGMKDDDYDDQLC
Nature of the assay: Functional activity: beta-arrestin2 recruitment to the 5-HT2C receptor in U2OS_HTR2C_β-Arrestin cells (DiscoverX). The assay is classed as cell-based. The note with it: for EC50: U2OS_HTR2C_β-Arrestin cells, 1.5 h incubation, chemiluminescent β-galactosidase complementation readout, read-out: Potency (EC50) in functional assay. Here is the method: The functional activity of compounds of formula I was assayed by incubation with U2OS_HTR2C_β-Arrestin cells (DiscoverX, 93-0289C3) to induce beta-arrestin2 recruitment to the 5-HT2C receptor. The agonist-induced recruitment and proximity of the receptor and beta-arrestin2 leads to complementation and formation of active β-galactosidase. The enzyme complementation results in enzyme activity, which is measured following the termination of the agonist incubation using DiscoveRx's detection reagent, which contains a chemiluminescent substrate which produces a high intensity signal. Cells were plated and a medium-change to a 1% serum containing medium was performed 24 h later. The next day, test compounds were added and incubated for 1.5 h before addition of detection reagent.
The response produced was measured and compared with the response produced by 10 [mu]M 5-HT or the maximal effect induced by 5-HT (defined as 100%) to which it was expressed as a percentage response (relative efficacy). Dose response curves were constructed using Graphpad Prism (Graph Software Inc.) or using in house adapted software using a 4 parameter dose response model with variable slope (fit=(Bottom+(Top−Bottom)/(1+10^((Log EC50−x)*HillSlope))res=(y−fit)). Results are compiled in the table below.

Where [1] appears, read: relative efficacy: response as percentage of response to 10 μM 5-HT or maximal effect induced by 5-HT (defined as 100%).

For the molecule `CC1(C(F)(F)F)CCN2CCNCc3cccc1c32` (single isomer, unassigned) [Example 9, 8-Methyl-8-(trifluoromethyl)-2,3,4,6,7,8-hexahydro-1H-[1,4]diazepino [6,7,1-ij]quinoline], the “% efficacy” value under setting [1] is 61%. Turning to `CC1CNCc2cccc3c2N1CC1CCCN31` (stereo not drawn) [Example 45, 7-Methyl-5,6,7,9,9^a,10,11,12-octahydro-4H-[1,4]diazepino[1,7,6-de]pyrrolo[1,2-a]quinoxaline], the EC50 is 20 to 200 nM. Under setting [1], the Emax stood at 77%.

Turning to `c1cc2c3c(c1)N(CC1CC1)CCN3CCNC2` [Example 36, 1-(Cyclopropylmethyl)-2,3,5,6,7,8-hexahydro-1H-[1,4]diazepino[1,7,6-de]quinoxaline], the EC50 lay within 200 to 1000 nM. The molecule further came in with an Emax under setting [1] of 31%. On to `CC1CNCc2cccc3c2N1CCN3C1CC1` (stereo not drawn) [Example 42, 1-Cyclopropyl-5-methyl-2,3,5,6,7,8-hexahydro-1H-[1,4]diazepino[1,7,6-de]quinoxaline], for which the EC50 is < 20 nM. Also, the Emax under setting [1] was found to be 163%.

On to `c1cc2c3c(c1)N(C1CC1)CCN3CCNC2` [Example 40, 1-Cyclopropyl-2,3,5,6,7,8-hexahydro-1H-[1,4]diazepino[1,7,6-de]quinoxaline], for which the concentration for a half-maximal effect (EC50) lay in the range of 20 to 200 nM. Also, the Emax under setting [1] is 131%.
